Results: patent US20120283245A1, “AZABICYCLO[3.1.0]HEX-2-YL COMPOUNDS, A PROCESS FOR THEIR PREPARATION AND PHARMACEUTICAL COMPOSITIONS CONTAINING THEM” (LES LABORATOIRES SERVIER, priority 2009, published 2012)
Structures can show the parent of a compound that is named as a salt.

These compounds were tested against T1, type H3 mouse histamine receptors (Mus musculus, UniProt P58406) (assay: Affinity for mouse H3 receptors (iodoproxyfan displacement, transfected CHO cells)). Details: mouse H3 receptors transfected into CHO cells, iodoproxyfan radioligand, 24 h at room temperature.
T1 construct: expressed in transfected cells; host or cells: CHO cells
T1 sequence (P58406 whole entry): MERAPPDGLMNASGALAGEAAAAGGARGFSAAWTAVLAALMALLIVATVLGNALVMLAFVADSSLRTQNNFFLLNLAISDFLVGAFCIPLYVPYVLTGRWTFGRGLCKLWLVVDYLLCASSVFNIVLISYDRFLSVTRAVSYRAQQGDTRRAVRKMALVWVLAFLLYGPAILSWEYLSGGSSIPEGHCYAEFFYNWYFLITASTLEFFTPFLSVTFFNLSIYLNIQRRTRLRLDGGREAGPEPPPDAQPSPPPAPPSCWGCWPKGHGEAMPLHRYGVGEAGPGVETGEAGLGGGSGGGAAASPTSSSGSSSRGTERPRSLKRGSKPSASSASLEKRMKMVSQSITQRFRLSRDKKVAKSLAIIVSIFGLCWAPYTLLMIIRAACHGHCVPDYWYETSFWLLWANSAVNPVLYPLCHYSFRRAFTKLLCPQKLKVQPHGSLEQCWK
Type: binding
Method: The purpose is to measure the affinity of compounds of the present invention for type H3 mouse histamine receptors transfected into CHO cells. The compounds are incubated at different concentrations in the presence of transfected CHO cells, iodoproxyfan as a radiolabelled ligand which is specific for H3 receptors, and scintillant beads for 24 h at room temperature. At the end of the incubation, the displacement of the specific binding of the ligand by the compounds under test is measured, and the affinity constants of those compounds for mouse H3 receptors are determined

Ki [nM]	SMILES
390	COCC(=O)Nc1ccc(OCCCN2CC[C@H]3C[C@H]32)cc1 (racemic) [Example 9, N-(4-{3-(cis-2-azabicyclo[3.1.0]hex-2-yl)propoxy}phenyl)-2-methoxy-acetamide hydrochloride]
750	CC(=O)Nc1ccc(OCCCN2CC[C@H]3C[C@H]32)cc1 (racemic) [Example 3, N-(4-{3-(cis-2-azabicyclo[3.1.0]hex-2-yl)propoxy}phenyl)acetamide hydrochloride]

The next lines start with the compound.

SMILES	Ki [nM]
CN(C)C(=O)c1ccc(OCCCN2CC[C@H]3C[C@H]32)cc1 (racemic) [Example 5, 4-{3-(cis-2-Azabicyclo[3.1.0]hex-2-yl)propoxy}-N,N-dimethylbenzamide hydrochloride]	180
NC(=O)c1ccc(OCCCN2CC[C@H]3C[C@H]32)cc1 (racemic) [Example 1, 4-[3-(cis-2-Azabicyclo[3.1.0]hex-2-yl)propoxy]-benzamide hydrochloride]	2400

Each compound was assayed against T2, type H3 central histamine receptors (Mus musculus, UniProt P58406) (assay: Cerebral levels of Nτ-methylhistamine in the NMRI mouse (ex vivo)). Details: 3 mg/kg PO, one hour after treatment, versus carrier controls.
T2 construct: from tissue; host or cells: brain of living NMRI mice (oral dosing)
T2 sequence (P58406 whole entry): as above
Method: The purpose of this study, which was carried out in accordance with the method of Taylor et al. (Biochem. Pharm., 1992, 44, 1261-1267), is to evaluate the ex vivo activity of the compounds of the present invention as antagonists of type H3 central histamine receptors. […] An increase in the cerebral concentrations of N^τ-methylhistamine indicates an increase in to the turn-over of histamine by blockage of the type H3 central histamine receptors. NMRI mice (18-20 g) are treated with compounds of the present invention or with their carrier (20 ml/kg) by the oral route. One hour after the pharmacological treatment, the animals are sacrificed; the brains are removed, frozen in liquid nitrogen, weighed and homogenised in 0.1N HClO4 at 4° C. The homogenised products are centrifuged (15000 g, 17 mins., 4° C.). The supernatants are recovered and divided into aliquots. The aliquots are frozen in liquid nitrogen and stored at −80° C. until they are analysed. Determination of the cerebral levels of N^τ-methylhistamine is carried out by capillary electrophoresis. The tissue levels of N^τ-methylhistamine are expressed in μg/g of fresh brain. The comparison of the cerebral levels of N^τ-methylhistamine between animals treated with the carrier (controls) and animals treated with compounds of the present invention is carried out by single-factor variance analysis followed, if necessary, by a complementary analysis (Dunnett's test).

increase of endogenous cerebral concentrations of Nτ-methylhistamine	SMILES
+272%	CC(=O)Nc1ccc(OCCCN2CC[C@H]3C[C@H]32)cc1 (relative stereo) [Example 3, N-(4-{3-(cis-2-azabicyclo[3.1.0]hex-2-yl)propoxy}phenyl)acetamide hydrochloride]
+250%	COCC(=O)Nc1ccc(OCCCN2CC[C@H]3C[C@H]32)cc1 (relative stereo) [Example 9, N-(4-{3-(cis-2-azabicyclo[3.1.0]hex-2-yl)propoxy}phenyl)-2-methoxy-acetamide hydrochloride]

Second part, the compound before the results:

SMILES	increase of endogenous cerebral concentrations of Nτ-methylhistamine
CC(=O)N(C)c1ccc(OCCCN2CC[C@H]3C[C@H]32)cc1.Cl (relative stereo) [Example 8, N-(4-{3-(cis-2-azabicyclo[3.1.0]hex-2-yl)propoxy}phenyl)-N-methyl-acetamide hydrochloride]	+276%
CNC(=O)c1ccc(OCCCN2CC[C@H]3C[C@H]32)cc1.Cl (relative stereo) [Example 7, 4-{3-(cis-2-Azabicyclo[3.1.0]hex-2-yl)propoxy}-N-methylbenzamide hydrochloride]	+377%
CCN(CC)C(=O)c1ccc(OCCCN2CC[C@H]3C[C@H]32)cc1.Cl (relative stereo) [Example 6, 4-{3-(cis-2-Azabicyclo[3.1.0]hex-2-yl)propoxy}-N,N-diethylbenzamide hydrochloride]	+225%
CC(=O)Nc1ccc(OCCN2CC[C@H]3C[C@H]32)cc1.Cl (relative stereo) [Example 4, N-(4-{2-(cis-2-azabicyclo[3.1.0]hex-2-yl)ethoxy}phenyl)acetamide hydrochloride]	+221%
